Key:
[1] = tested on: neurons; conditions: cited from earlier work
[2] = dog, in vivo
Experimental: In 6 other animals, 1.6 mg of NIPA-M (twice the amount of NIPA-M incorporated into one trans-coronary delivery) was directly injected into the left ventricle. NIPA-M used in these experiments was not incorporated into the hydrogel in order to simulate the greatest possible toxic challenge should the total NIPA-M dose be released instantly into the circulation from trans-coronary infusion. Serum samples before and 9.7±0.3 hours after NIPA-M injection were collected for paired analysis to assess renal and hepatic toxicity.

[3] = in vivo; cited from earlier work
[4] = tested on: neurotransmitter release at the synapse; conditions: cited from earlier work

Row | Compound | LD50% to kill 50% neurons [1] [mM] | BUN/creatine ratio [2] | alanine aminotransferase (ALT) [2] [U/L] | blood urea nitrogen (BUN) [2] [mmol/L] | serum creatinine [2] [mmol/L] | neuropathy following prolonged oral exposure [3] | duration of inhibition of neurotransmitter release at the synapse [4]
1 | C=CC(=O)NC(C)C [NIPA-M, N-isopropyl acrylamide monomer] | 5 to 8 | 17.6±1.7 | 41.3±8.7 | 16.2 ± 2.9 | 0.9 ± 0.1 | induce clinical (ataxia, rotorod performance deficits) and morphological (tibial nerve degeneration) signs of neuropathy | 
2 | botulinum toxin-A [BtA] |  |  |  |  |  |  | 3-6 months

Source: patent US8740872B2, “Magnetically-targeted treatment for cardiac disorders” (The Board of Regents of the University of Oklahoma, priority 2010, dated 2014)
